The assay addresses sodium channel isoforms (Homo sapiens, UniProt P35498). The format is cell-based. The following applies: area under the sodium current trace, step from −120 mV to 0 mV, HEK cells. Here is the method:
The sodium channel isoforms of interest are stably expressed in Human Embryonic Kidney Cells and the currents that flow through those channels in response to a depolarizing voltage clamp step from −120 mV to 0 mV are measured in the presence of increasing concentrations of the chemical agents. The area under the sodium current trace which correlates to the magnitude of sodium flux through the cell membrane is used to quantify the effects on gating of the channels. Other parameters that are measured in the assay include the peak current, time constant of open state inactivation and the voltage dependence of steady state inactivation properties. The concentration responses are used to determine potency of each chemical agents effects on modulating the sodium channel isoform gating. Such techniques are known to those skilled in the art, and may be developed, using current technologies, into low or medium throughput assays for evaluating compounds for their ability to modulate sodium channel behaviour.

For `CC(C)c1ncc(C(=O)Nc2c(-c3ccccc3F)ccnc2C2CCC3(CC2)CC3)cn1` [Example 28, N-[4-(2-fluorophenyl)-2-spiro[2.5]octan-6-yl-3-pyridyl]-2-isopropyl-pyrimidine-5-carboxamide], the “Empirical Emax” value is recorded as “++ (++ indicates a value from 2.0 up to 5.0 μM)”. Turning to `c1ccc(-c2ccnc(C3CCOCC3)c2-c2nc3c([nH]2)COCC3)cc1` [Example 45, 2-(4-phenyl-2-(tetrahydro-2H-pyran-4-yl)pyridin-3-yl)-3,4,6,7-tetrahydropyrano[3,4-d]imidazole], the “Empirical Emax” value was “+ (+ indicates a value less than 2.0 μM)”. Regarding `CC(C)c1ncc(C(=O)Nc2c(-c3ccccc3F)ccnc2C2CC3(COC3)C2)cn1` [Example 36, N-(4-(2-fluorophenyl)-2-(2-oxaspiro[3.3]heptan-6-yl)pyridin-3-yl)-2-isopropylpyrimidine-5-carboxamide], the “Empirical Emax” value was “+++ (+++ indicates a value from 5.0 up to 7.5 μM)”.

Compound `CN1C[C@H]2CC[C@@H](C1)N2c1ncc(C(=O)Nc2c(-c3cc(F)ccc3F)ccnc2C2CCC(F)(F)CC2)cn1` [Example 160, N-(2-(4,4-difluorocyclohexyl)-4-(2,5-difluorophenyl)pyridin-3-yl)-2-((1R,5S)-3-methyl-3,8-diazabicyclo[3.2.1]octan-8-yl)pyrimidine-5-carboxamide] showed an EC50 of less than 1000 nM. Turning to `CC(C)c1ncc(C(=O)Nc2c(-c3ccccc3)ccnc2C2CCCO2)cn1` (racemic) [Example 11, (±)-2-isopropyl-N-(4-phenyl-2-(tetrahydrofuran-2-yl)pyridin-3-yl)pyrimidine-5-carboxamide], the “Empirical Emax” value is “+ (+ indicates a value less than 2.0 μM)”.

In the case of `CC(C)c1ncc(C(=O)Nc2c(-c3cc(F)ccc3F)ccnc2C2CCC(F)(F)CO2)cn1` (stereo not drawn) [Example 9, N-[4-(2,5-difluorophenyl)-2-(5,5-difluorotetrahydropyran-2-yl)-3-pyridyl]-2-isopropyl-pyrimidine-5-carboxamide], the “Empirical Emax” value is given as “+++ (+++ indicates a value from 5.0 up to 7.5 μM)”.

`CC(C)c1ncc(C(=O)Nc2c(-c3ccccc3F)ccnc2C2CCC(F)(F)C2)cn1` (stereo not drawn) [Example 24, N-[2-(3,3-difluorocyclopentyl)-4-(2-fluorophenyl)-3-pyridyl]-2-isopropyl-pyrimidine-5-carboxamide]: the “Empirical Emax” value is “++++ (++++ indicates a value greater than 7.5)”. Compound `O=C(Nc1c(-c2cc(F)ccc2F)ccnc1C1CCC(F)(F)CC1)c1cnc(N2CC3CC(C2)O3)nc1` [Example 167, 2-(6-oxa-3-azabicyclo[3.1.1]heptan-3-yl)-N-(2-(4,4-difluorocyclohexyl)-4-(2,5-difluorophenyl)pyridin-3-yl)pyrimidine-5-carboxamide] showed an EC50 of less than 1000 nM. In the case of `Fc1ccc(F)c(-c2ccnc(C3CCC(F)(F)CC3)c2-c2nc3c([nH]2)COCC3)c1` [Example 47, 2-(2-(4,4-difluorocyclohexyl)-4-(2,5-difluorophenyl)pyridin-3-yl)-3,4,6,7-tetrahydropyrano[3,4-d]imidazole], the “Empirical Emax” value is given as “+++ (+++ indicates a value from 5.0 up to 7.5 μM)”. In turn, `O=C(Nc1c(-c2cc(F)ccc2F)ccnc1C1CCC(F)(F)CC1)c1cnc(N2CC3CC(C3)C2)nc1` [Example 166, 2-(3-azabicyclo[3.1.1]heptan-3-yl)-N-(2-(4,4-difluorocyclohexyl)-4-(2,5-difluorophenyl)pyridin-3-yl)pyrimidine-5-carboxamide] had a 50% effective concentration (EC50) of less than 1000 nM.

For the compound `CC(C)c1ncc(C(=O)Nc2c(-c3ccccc3F)ccnc2C2CC3(C2)CC(F)(F)C3)cn1` [Example 19, N-[2-(2,2-difluorospiro[3.3]heptan-6-yl)-4-(2-fluorophenyl)-3-pyridyl]-2-isopropyl-pyrimidine-5-carboxamide], the “Empirical Emax” value was “++ (++ indicates a value from 2.0 up to 5.0 μM)”.

As to `O=C(Nc1c(-c2cc(F)ccc2F)ccnc1C1CCC(F)(F)CC1)c1cnc(N2C3CCCC2CC3)nc1` [Example 165, 2-(8-azabicyclo[3.2.1]octan-8-yl)-N-(2-(4,4-difluorocyclohexyl)-4-(2,5-difluorophenyl)pyridin-3-yl)pyrimidine-5-carboxamide], the EC50 was less than 1000 nM.

Take `O=C(Nc1ccc(Cl)nc1)c1c(-c2ccccc2F)ccnc1C1=CCCC1` [Example 50, N-(6-chloropyridin-3-yl)-2-(cyclopent-1-en-1-yl)-4-(2-fluorophenyl)nicotinamide]: the “Empirical Emax” value is on record as “+ (+ indicates a value less than 2.0 μM)”. The same measure, in the same setting: for `CC(C)c1ccc(NC(=O)c2c(-c3ccccc3F)ccnc2C2CCOCC2)cn1` [Example 53, 4-(2-fluorophenyl)-N-(6-isopropylpyridin-3-yl)-2-(tetrahydro-2H-pyran-4-yl)nicotinamide] the value was “++ (++ indicates a value from 2.0 up to 5.0 μM)”; for `CC(C)c1ncc(C(=O)Nc2c(-c3ccccc3F)ccnc2C2CCOCC2)cn1` [Example 14, N-(4-(2-fluorophenyl)-2-(tetrahydro-2H-pyran-4-yl)pyridin-3-yl)-2-isopropylpyrimidine-5-carboxamide], “+++ (+++ indicates a value from 5.0 up to 7.5 μM)”; for `CC(C)c1ncc(C(=O)Nc2c(-c3ccccc3F)ccnc2C2CCCCO2)cn1` (stereo not drawn) [Example 18, N-[4-(2-fluorophenyl)-2-tetrahydropyran-2-yl-3-pyridyl]-2-isopropyl-pyrimidine-5-carboxamide], “+++ (+++ indicates a value from 5.0 up to 7.5 μM)”. Same read-out and setting: to `CC(C)c1ncc(C(=O)Nc2c(-c3ccccc3F)ccnc2C2CC(F)(F)CCN2C)cn1` (racemic) [Example 43] belongs “++ (++ indicates a value from 2.0 up to 5.0 μM)”. Still for that read-out and setting: to `CC(C)c1ncc(C(=O)Nc2c(-c3ccccc3F)ccnc2[C@H]2CC[C@H](F)CC2)cn1` [Example 34] belongs “+++ (+++ indicates a value from 5.0 up to 7.5 μM)”. Regarding `CC(C)c1ncc(C(=O)Nc2c(-c3ccccn3)ccnc2C2CCC(F)(F)CC2)cn1` [Example 55, N-(2′-(4,4-difluorocyclohexyl)-[2,4′-bipyridin]-3′-yl)-2-isopropylpyrimidine-5-carboxamide], the “Empirical Emax” value is “+++ (+++ indicates a value from 5.0 up to 7.5 μM)”. Same read-out and setting: to `CC(C)c1ncc(C(=O)Nc2c(-c3ccccc3F)ccnc2C2C[C@@H]3[C@H](C2)C3(F)F)cn1` (stereo partly drawn) [Example 23, N-[2-[(1R,5S)-6,6-difluoro-3-bicyclo[3.1.0]hexanyl]-4-(2-fluorophenyl)-3-pyridyl]-2-isopropyl-pyrimidine-5-carboxamide] belongs “++++ (++++ indicates a value greater than 7.5)”; to `Fc1ccc(F)c(-c2ccnc(C3CCC(F)(F)C3)c2-c2nc3c([nH]2)COCC3)c1` (stereo not drawn) [Example 48, 2-(2-(3,3-difluorocyclopentyl)-4-(2,5-difluorophenyl)pyridin-3-yl)-3,4,6,7-tetrahydropyrano[3,4-d]imidazole], “+++ (+++ indicates a value from 5.0 up to 7.5 μM)”. On the same count and under the same terms, for `CC(C)c1ccc(NC(=O)c2c(-c3ccccc3F)ccnc2C2=CCOCC2)cn1` [Example 52] the value was “+ (+ indicates a value less than 2.0 μM)”; for `CC(C)c1ncc(C(=O)Nc2c(-c3ccccc3F)ccnc2C2CCCCC2)cn1` [Example 17, N-[2-cyclohexyl-4-(2-fluorophenyl)-3-pyridyl]-2-isopropyl-pyrimidine-5-carboxamide], “+++ (+++ indicates a value from 5.0 up to 7.5 μM)”. The same measure, in the same setting: for `CC(C)c1ncc(C(=O)Nc2c(-c3ccccc3F)ccnc2C2CC(F)(F)C2)cn1` [Example 32, N-(2-(3,3-difluorocyclobutyl)-4-(2-fluorophenyl)pyridin-3-yl)-2-isopropylpyrimidine-5-carboxamide] the value was “+++ (+++ indicates a value from 5.0 up to 7.5 μM)”. On to `CC(C)Oc1ncc(C(=O)Nc2c(-c3ccccc3F)ccnc2C2CCC(F)(F)CC2)cn1` [Example 4, N-[2-(4,4-difluorocyclohexyl)-4-(2-fluorophenyl)-3-pyridyl]-2-isopropoxy-pyrimidine-5-carboxamide], for which the “Empirical Emax” value is given as “++++ (++++ indicates a value greater than 7.5)”. As to `FC1(F)CCC(c2nccc(-c3ccccc3)c2-c2nc3c([nH]2)COCC3)CC1` [Example 46, 2-(2-(4,4-difluorocyclohexyl)-4-phenylpyridin-3-yl)-3,4,6,7-tetrahydropyrano[3,4-d]imidazole], the “Empirical Emax” value was “+++ (+++ indicates a value from 5.0 up to 7.5 μM)”.

For the compound `CC(C)c1ncc(C(=O)Nc2c(-c3ccccc3F)ccnc2C2CC(F)(F)CN2C(=O)OC(C)(C)C)cn1` (stereo not drawn) [Example 31, tert-butyl 4,4-difluoro-2-[4-(2-fluorophenyl)-3-[(2-isopropylpyrimidine-5-carbonyl)amino]-2-pyridyl]pyrrolidine-1-carboxylate], the “Empirical Emax” value is reported as “+ (+ indicates a value less than 2.0 μM)”.

Turning to `CCOc1ncc(C(=O)Nc2c(-c3ccccc3F)ccnc2C2CCC(F)(F)CC2)cn1` [Example 3, N-[2-(4,4-difluorocyclohexyl)-4-(2-fluorophenyl)-3-pyridyl]-2-ethoxy-pyrimidine-5-carboxamide], the “Empirical Emax” value is “++++ (++++ indicates a value greater than 7.5)”. As to `CC(C)c1ncc(C(=O)Nc2c(-c3ccccc3)ccnc2C23CCOCC2C3)cn1` (racemic) [Example 12, (±)—N-(2-(3-oxabicyclo[4.1.0]heptan-6-yl)-4-phenylpyridin-3-yl)-2-isopropylpyrimidine-5-carboxamide], the “Empirical Emax” value is reported as “+ (+ indicates a value less than 2.0 μM)”. The same measure, in the same setting: to `CC(C)c1ncc(C(=O)Nc2c(-c3ccccc3F)ccnc2C2CCCOC2)cn1` (stereo not drawn) [Example 16, N-[4-(2-fluorophenyl)-2-tetrahydropyran-3-yl-3-pyridyl]-2-isopropyl-pyrimidine-5-carboxamide] belongs “++ (++ indicates a value from 2.0 up to 5.0 μM)”.

As usually defined, the EC50 is the concentration needed to bring the measured effect to its halfway point.
